Measured values published in US6342503B1, “1N-alkyl-n-arylpyrimidinamines and derivatives thereof” (DuPont Pharmaceuticals Company, priority 1993, dated 2002).

The compounds below were run against T1, CRF receptor (Rattus norvegicus, UniProt P35353) (assay: In vitro CRF receptor binding assay (competition with [125I] ovine CRF, rat cortex membranes)). Details: competition with [125I] ovine CRF, 2 h at 22° C.; Ki classes; read-out: Inhibition Ki.
T1 construct: 100 μl of membrane suspension as prepared above to give a total reaction volume of 300 μl; from tissue; host or cells: rat cerebral cortex membrane homogenate
T1 sequence (P35353 24-415): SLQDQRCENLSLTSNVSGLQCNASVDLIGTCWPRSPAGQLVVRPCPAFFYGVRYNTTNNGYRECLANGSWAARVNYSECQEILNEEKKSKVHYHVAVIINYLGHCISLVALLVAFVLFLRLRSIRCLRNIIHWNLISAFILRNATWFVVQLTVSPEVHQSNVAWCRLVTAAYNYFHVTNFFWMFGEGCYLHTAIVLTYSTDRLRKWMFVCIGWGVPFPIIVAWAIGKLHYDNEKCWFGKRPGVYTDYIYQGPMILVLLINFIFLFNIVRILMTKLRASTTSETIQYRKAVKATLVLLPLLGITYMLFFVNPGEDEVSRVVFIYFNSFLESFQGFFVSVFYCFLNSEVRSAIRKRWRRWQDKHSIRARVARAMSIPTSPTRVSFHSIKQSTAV
Procedure: In vitro Receptor Binding Assay
Tissue Preparation: Male Sprague Dawley rats (180-200 g) were sacrificed by decapitation and the cortex was dissected on ice, frozen whole in liquid nitrogen and stored at −70° C. until use. On the day of assay, frozen tissue was weighed and homogenized in 20 volumes of ice cold buffer containing 50 mM Tris, 10 mM MgCl2, 2 mM EGTA, pH 7.0 at 22° C. using a Polytron (Brinkmann Instruments, Westbury, N.Y.; setting 6) for 20 s. The homogenate was centrifuged at 48,000× g for 10 min at 4° C. The supernatant was discarded, and the pellet was re-homogenized in the same volume of buffer and centrifuged at 48,000× g for 10 min at 4° C. The resulting pellet was resuspended in the above buffer to a final concentration of 20-40 mg original wet weight/mL and used in the assays described below.
CRF Receptor Binding: Receptor binding assays were carried out essentially as described by E. B. De Souza, J. Neurosci. […]
All assays were carried out at equilibrium for 2 h at 22° C. as described by E. B. De Souza, J. Neurosci. […] The reaction was terminated by centrifugation of the tubes in a Beckman microfuge for 5 min at 12,000× g. Aliquots of the supernatant were collected to determine the “free” radioligand concentration. The remaining supernatant was aspirated and the pellets washed gently with ice-cold PBS plus 0.01% Triton X-100; centrifuged again and monitored for bound radioactivity as described above. […] This program has the distinct advantage of fitting the raw experimental data on an untransformed coordinate system where errors are most likely to be normally distributed and uncorrelated with the independent variable. […] The parameters for the affinity constants (KD) and receptor densities (Bmax) are also provided along with statistics on the general “fit” of the estimated parameters to the raw data.
Competition Curve Analysis
The resulting pellets were surface washed twice by centrifugation with 1 mL of ice-cold phosphate buffered saline and 0.01% Triton X-100; the supernatants discarded and the pellets monitored for radioactivity at approximately 80% efficiency. The level of non-specific binding was defined in the presence of […] unlabeled rat/humanCRF (r/hCRF). Data from competition curves were analyzed by the program LIGAND. […] Routinely, the data were analyzed using a one- and two-site model comparing the “goodness of fit” between the models in order to accurately determine the Ki. Statistical analyses provided by LIGAND allowed the determination of whether a single-site or multiple-site model should be used.
In Table 17; the Ki values were determined using the assay conditions described above.

Row | Ki | Compound
1 | < 500 nM | CCSc1cc(C(C)=NOC)ccc1N(CC)c1nc(C)cc(C)n1 [compound 176, N-(2-ethylthio-4-methoxyiminoethylphenyl)-N-ethyl-4,6-dimethyl-2-pyrimidinamine]
2 | < 500 nM | N-ethyl-N-(2-bromo-4-(2-methoxyethyl)phenyl)4-morpholino-6-methyl-2-pyrimidinamine [compound 29]
3 | < 500 nM | CCN(c1nc(C)cc(CN2CCOCC2)n1)c1ccc(C(C)C)cc1Br [compound 59, N-(2-bromo-4-(1-methylethyl)phenyl)-N-ethyl-6-methyl-4-(4-morpholinylmethyl)-2-pyrmidinamine]

Same assay, conditions: read-out: Inhibition Ki

Row | Compound | Ki
4 | CCN(c1nc(C)cc(C)n1)c1ccc(C2CCCCC2)cc1Br [compound 22] | 501 to 2000 nM
5 | CCN(c1nc(C)cc(-c2cccs2)n1)c1ccc(C(C)C)cc1Br [compound 31, N-(2-Bromo-4-(1-methylethyl)phenyl)-N-ethyl-6-methyl-4-(2-thienyl)-2-pyrimidinamine] | < 500 nM
6 | CCN(c1nc(C)cc(C(=O)NC)n1)c1ccc(C(C)C)cc1Br [compound 271] | < 500 nM
7 | CCN(c1nc(C)cc(Cl)n1)c1ccc(C(C)C)cc1I [compound 167, N-(2-iodo4-(1-methylethyl)phenyl)-N-ethyl-4-chloro-6-methyl-2-pyrimidinamine] | < 500 nM
8 | CCN(c1nc(C)nc(N2CCOCC2)n1)c1c(OC)cc(OC)cc1OC [compound 239] | < 500 nM
9 | CCN(c1nc(C)cc([S+](C)[O-])n1)c1ccc(C(C)C)cc1Br (stereo not drawn) [compound 160, N-(2-bromo-4-(1-methylethyl)phenyl)-N-ethyl-4-methyl-6-(thiomethyl)-2-pyrimidinamine, S-oxide] | < 500 nM
10 | CCN(c1nc(C)cc(C)n1)c1c(OC)cc(C)cc1OC [compound 51] | 501 to 2000 nM
11 | CCOC(=O)C(C(=O)OCC)c1nc(C)nc(N(CC)c2ccc(C(C)C)cc2Br)n1 [compound 246] | < 500 nM
12 | Cc1cc(C)nc(N(C)c2ccccc2I)n1 [compound 53] | 2000 to 10000 nM
13 | CCN(c1nc(C)cc(COC)n1)c1ccc(C(C)C)cc1I [compound 207] | < 500 nM
14 | CCN(c1nc(C)cc(C)n1)c1ccc(C(C)C)cc1Br [compound 21, N-(2-bromo-4-(1-methylethyl)phenyl)-N-ethyl-4,6dimethyl-2-pyrimidinamine] | < 500 nM
15 | CCN(c1nc(C)cc(C(O)c2ccco2)n1)c1ccc(C(C)C)cc1Br (stereo not drawn) [compound 291] | < 500 nM
16 | Cc1cc(C)c2ccn(-c3ccc(C(C)C)cc3Br)c2n1 [Example 257] | < 500 nM
17 | CCN(c1nc(C)cc(COc2ccccn2)n1)c1ccc(C(C)C)cc1Br [compound 210] | 501 to 2000 nM
18 | Cc1cc(Cl)c2ccn(-c3ccc(C(C)C)cc3Br)c2n1 [Example 259] | < 500 nM
19 | C=CCN(c1nc(C)cc(N2CCOCC2)n1)c1ccc(C(C)C)cc1Br [compound 17] | < 500 nM
20 | CCN(c1nc(C)nc(N2CCOCC2)n1)c1ccc(C(C)C)cc1I [compound 136] | < 500 nM
21 | CCN(c1nc(C)cc(CN(C)C)n1)c1ccc(C(C)C)cc1Br [compound 279] | < 500 nM
22 | CCN(c1nc(C)cc(N(C)CCO)n1)c1ccc(C(C)C)cc1Br [compound 50, N-(2-Bromo-4-(1-methylethyl)phenyl)-N-ethyl-4-methyl-6-(N-methyl-2-hydroxyethlamino)-2-pyrimidinamine] | < 500 nM
23 | CCN(c1nc(C)cc(SC)n1)c1ccc(C(C)C)cc1Br [compound 140, N-(2-bromo-4-(1-methylethyl)phenyl)-N-ethyl-4-methyl-6-(thiomethyl)-2-pyrimidinamine] | < 500 nM
24 | CCN(c1nc(C)cc(C)n1)c1ccc(OC)cc1Br [compound 206] | < 500 nM
25 | Cc1cc(C)nc(N(CC2CC2)c2ccc(C(C)C)cc2Br)n1 [compound 33] | < 500 nM
26 | CCN(c1nc(C)nc(N2CCSCC2)n1)c1ccc(C(C)C)cc1I [compound 135] | < 500 nM
27 | CCN(c1nc(C)cc(COc2ccc(OC)cc2)n1)c1ccc(C(C)C)cc1Br [compound 208] | < 500 nM

More lines, now with the values ahead:

Row | Ki | Compound
28 | < 500 nM | CCN(c1nc(C)cc(C)n1)c1ccc(COC)cc1I [compound 172, N-(2-iodo-4-methoxymethylphenyl)-N-ethyl-4,6-dimethyl-2-pyrimidinamine]
29 | < 500 nM | CCN(c1nc(C)cc(N2CCSCC2)n1)c1ccc(C(C)C)cc1I [compound 73, N-ethyl-N-(2-iodo4-(1-methylethyl)phenyl)4-thiomorpholino-6-methyl-2-pyrimidinamine]
30 | < 500 nM | C=CCOC1CCN(c2cc(C)nc(N(CC)c3ccc(C(C)C)cc3Br)n2)CC1 [compound 37]
31 | 501 to 2000 nM | Cc1cc(C)nc(N2CCCSc3cc(C(C)C)ccc32)n1 [compound 173]
32 | 501 to 2000 nM | C=CCN(c1nc(C)cc(C)n1)c1ccccc1Br [compound 3]
33 | < 500 nM | CCN(c1nc(C)cc(C)n1)c1ccc(OC(C)C)cc1Br [compound 57, N-(2-Bromo-4-(isopropoxy)phenyl)-N-ethyl-4,6dimethyl-2-pymidinamine]
34 | 501 to 2000 nM | CCN(c1nc(C)nc(Cl)n1)c1ccc(C(C)C)cc1Br [compound 250]
35 | 501 to 2000 nM | CCN(c1nc(C)cc(COc2cc(OC)c(OC)c(OC)c2)n1)c1ccc(C(C)C)cc1Br [compound 214]
36 | < 500 nM | CCN(c1nc(C)cc(C(C)(C)O)n1)c1ccc(C(C)C)cc1Br [compound 295]
37 | < 500 nM | CCN(c1nc(C)cc(N)n1)c1ccc(C(C)C)cc1Br [compound 155]
38 | 2000 to 10000 nM | CCN(c1nc(C)cc(C(=O)N2CCN(c3ccccn3)CC2)n1)c1ccc(C(C)C)cc1Br [compound 274]
39 | < 500 nM | CCc1ccc(N(CC)c2nc(C)cc(C)n2)c(SC)c1 [compound 182, N-(4-ethyl-2-methylthiophenyl)-N-ethyl-4,6-dimethyl-2-pyrimidinamine]
40 | 501 to 2000 nM | CCCCc1ccc(N(CC)c2nc(CC)cc(CC)n2)c(Br)c1 [compound 24]
41 | 501 to 2000 nM | CCN(c1nc(C)nc(OCc2ccccc2)n1)c1ccc(C(C)C)cc1Br [compound 242, N-[2-bromo-4(1-methylethyl)phenyl]-N-ethyl-4-methyl-6-benzyloxy-1,3,5 triazin-2-amine]
42 | < 500 nM | CCN(c1nc(C)cc(C(O)c2ccc(OC)cc2)n1)c1ccc(C(C)C)cc1Br (stereo not drawn) [compound 292]
43 | < 500 nM | CCN(c1nc(C)cc(OCCN(C)C)n1)c1ccc(C(C)C)cc1Br [compound 161]
44 | 501 to 2000 nM | CCN(c1cc(OC)nc(OC)n1)c1ccc(C(C)C)cc1Br [compound 130]
45 | 501 to 2000 nM | CCN(c1nc(C)nc(C)n1)c1ccc(C(C)C)cc1Br [compound 133]
46 | < 500 nM | CCN(CC)c1nc(C)nc(N(CC)c2ccc(C(C)C)cc2Br)n1 [compound 232]
47 | < 500 nM | CCN(c1nc(C)nc(N2CCOCC2)n1)c1ccc(C(C)C)cc1Br [compound 134, N-[2-bromo-4-(1-methylethyl)phenyl]-N-ethyl-4-methyl-6-(4-morpholinyl)-1,3,5-triazin-2-amine]
48 | < 500 nM | CCc1ccc(N(C)c2nc(C)cc(C)n2)c(Br)c1 [compound 9, N-(2-bromo-4-ethylphenyl)-N-methyl-4,6-dimethyl-2-pypimidinamine]
49 | < 500 nM | CCN(c1nc(C)cc(Cl)n1)c1ccc(C(C)C)cc1Br [compound 154]
50 | < 500 nM | CCN(c1nc(C)cc(COCc2cccnc2)n1)c1ccc(C(C)C)cc1Br [compound 216]
51 | 2000 to 10000 nM | CCN(c1nc(Cl)nc(Cl)n1)c1ccc(C(C)(C)O)cc1I [compound 249, N-[2-iodo-4-dimethylhydroxymethylphenyl]-N-ethyl-4-6-dichloro-1,3,5 triazin-2-amine]
52 | 501 to 2000 nM | CCN(c1nc(C)cc(COc2cccc(N(C)C)c2)n1)c1ccc(C(C)C)cc1Br [compound 215]
53 | < 500 nM | Cc1cc(C)nc(N(CC#N)c2ccc(C(C)C)cc2Br)n1 [compound 32]
54 | < 500 nM | CCN(c1nc(C)cc(COc2ccc(-n3ccnc3)cc2)n1)c1ccc(C(C)C)cc1Br [compound 218]
